Results from patent US7638624B2, “Compositions and methods relating to novel benzodiazepine compounds and derivatives” (The Regents of the University of Michigan, priority 2005, dated 2009).

Experiments:
Ramos cells [1] = test: Detection of cell death in Ramos cells, viability by propidium iodide staining; assay type: cell-based; details: 24 hours, 2% FBS, PI 1 μg/mL, FIG. 1
Protocol: (§1) Ramos cells were exposed to the following compounds:
Cell viability was assessed by staining with propidium iodide (PI, 1 μg/mL).

Ramos cells [2] = test: Ramos cells exposed to compounds, O2- detected with dihydroethidium (DHE); assay type: cell-based; details: 1 hour, 2% FBS, FIG. 2
Protocol: as §1
To detect O2^−, cells were incubated with dihydroethidium (DHE).

F1F0-ATPase = F1F0-ATPase inhibition; cited from earlier work

Row | SMILES | cellular death (cell viability by propidium iodide staining) (Ramos cells [1]) | cellular death (O2- detection with dihydroethidium) (Ramos cells [2]) | IC50 (F1F0-ATPase)
1 | CC1CN(c2ccc(O)cc2)c2cc(Cl)ccc2N(Cc2ccc3ccccc3c2)C1=O (stereo not drawn) [GD-423] | causes cell death | causes cell death | 
2 | CC[C@H]1/C=C/C=C/C[C@@H](C)[C@H](O)[C@@](C)(O)C(=O)[C@@H](C)[C@H](O)[C@@H](C)C(=O)[C@@H](C)[C@H](O)[C@@H](C)/C=C/C(=O)O[C@@H]2[C@H](C)[C@H](CC1)O[C@]1(CC[C@H](C)[C@H](C[C@@H](C)O)O1)[C@H]2C [oligomycin] |  |  | 10 nM
